Laboratory results: patent publication US8987249B2, “Substituted 2-Aza-bicyclo[2.2.1]heptane-3-carboxylic acid (benzyl-cyano-methyl)-amides inhibitors of Cathepsin C” (Boehringer Ingelheim International GmbH, priority 2013, dated 2015)

How the values were obtained:
[1] = biological target: recombinant human DPPI (Cathepsin C) (Homo sapiens (Human), UniProt P53634); test: Inhibition of human DPPI (Cathepsin C); format: biochemical; details: substrate Gly-Arg-AMC
Procedure, shortened: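 Fluorescence read after 30 min room-temperature turnover of 50 μM (final) substrate by recombinant human cathepsin C, pH 6.0 MES/NaCl/DTT/BSA buffer, quenched by Gly-Phe-DMK (1 μM final). Activity as percent of vehicle after background subtraction, used for IC50.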

[2] = Determination of metabolic stability with human liver microsomes; details: human, pooled human liver microsomes, pH 7.6
Description: Determination of Metabolic Stability with Human Liver Microsomes
The metabolic degradation of the test compound is assayed at 37° C. with pooled human liver microsomes. The final incubation volume of 100 μl per time point contains TRIS buffer pH 7.6 (0.1 M), magnesium chloride (5 mM), microsomal protein (1 mg/ml) and the test compound at a final concentration of 1 μM. Following a short preincubation period at 37° C., the reactions are initiated by addition of beta-nicotinamide adenine dinucleotide phosphate, reduced form (NADPH, 1 mM) and terminated by transferring an aliquot into acetonitrile after different time points. Additionally, the NADPH-independent degradation is monitored in incubations without NADPH, terminated at the last time point. The [%] remaining test compound after NADPH independent incubation is reflected by the parameter c (control) (metabolic stability). The quenched incubations are pelleted by centrifugation (10,000 g, 5 min). An aliquot of the supernatant is assayed by LC-MS/MS for the amount of parent compound.
The half-life (t½ INVITRO) is determined by the slope of the semilogarithmic plot of the concentration-time profile.

[3] = biological target: recombinant human Cathepsin K (Homo sapiens (Human), UniProt P43235); test: Inhibition of human Cathepsin K; format: biochemical; details: substrate Z-Gly-Pro-Arg-AMC
Chain of recombinant human Cathepsin K (P43235 115-329): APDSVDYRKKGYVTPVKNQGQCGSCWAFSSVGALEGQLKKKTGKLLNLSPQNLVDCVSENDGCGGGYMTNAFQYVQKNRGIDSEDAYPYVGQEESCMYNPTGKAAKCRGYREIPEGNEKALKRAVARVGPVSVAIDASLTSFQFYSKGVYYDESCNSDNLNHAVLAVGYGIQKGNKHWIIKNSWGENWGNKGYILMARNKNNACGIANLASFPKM
Procedure, shortened: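 Fluorogenic Z-Gly-Pro-Arg-AMC cleavage, 60 min at room temperature, after a 10 min enzyme–compound preincubation (enzyme 2 ng/μL; compound 0.1 nM–100 μM; 1% DMSO). Buffer pH 5.5 with sodium acetate, EDTA and L-cysteine; procathepsin first activated 30 min at pH 3.5. E64 (1 μM) stop; IC50 derived from percent of vehicle signal minus background (Ex 360/Em 460 nm).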

Chain of recombinant human DPPI (Cathepsin C) (P53634 231-394): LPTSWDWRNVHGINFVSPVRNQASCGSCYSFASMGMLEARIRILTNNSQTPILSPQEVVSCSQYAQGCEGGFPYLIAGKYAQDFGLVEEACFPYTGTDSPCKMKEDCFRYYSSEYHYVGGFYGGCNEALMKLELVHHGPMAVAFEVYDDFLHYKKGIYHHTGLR
Chain of recombinant human DPPI (Cathepsin C) (P53634 395-463): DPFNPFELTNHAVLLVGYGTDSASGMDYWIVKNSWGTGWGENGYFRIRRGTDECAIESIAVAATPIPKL
Chain of recombinant human DPPI (Cathepsin C) (P53634 25-134): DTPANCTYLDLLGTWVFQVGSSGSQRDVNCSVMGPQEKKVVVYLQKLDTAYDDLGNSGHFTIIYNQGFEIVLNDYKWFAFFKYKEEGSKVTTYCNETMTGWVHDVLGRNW

| Structure (SMILES) | IC50 [1] [nM] | half-life at 1 μM [2] [h] | IC50 [3] [nM] |
| --- | --- | --- | --- |
| N#Cc1ccc2[nH]c(=O)c3cc(CC(C#N)NC(=O)[C@H]4N[C@@H]5CC[C@H]4C5)ccc3c2c1 (stereo partly drawn) [Example 298] | 3.2 | 1.75 | 17600 |
| N#CC(Cc1ccc2c(c1)c(=O)[nH]c1c(F)c(F)c(F)cc12)NC(=O)[C@H]1N[C@@H]2CC[C@H]1C2 (stereo partly drawn) [Example 296] | 2.9 | > 2.17 | > 30000 |
| N#Cc1ccc(-c2ccc(CC(C#N)NC(=O)[C@H]3N[C@@H]4CC[C@H]3C4)c(F)c2)cc1F (stereo partly drawn) [Example 35] | 4.6 | > 2.17 | 4400 |
| N#C[C@H](Cc1ccc(N2CCN3CCOCC3C2)cc1F)NC(=O)[C@H]1N[C@@H]2CC[C@H]1C2 (stereo partly drawn) [Example 43] | 5.6 | > 2.17 | 2200 |
| CS(=O)(=O)c1cc(-c2ccc(CC(C#N)NC(=O)[C@H]3N[C@@H]4CC[C@H]3C4)c(F)c2)ccc1C#N (stereo partly drawn) [Example 19] | 2.8 | > 2.17 | 5400 |
| CS(=O)(=O)c1ccc(-c2ccc(C[C@@H](C#N)NC(=O)[C@H]3N[C@@H]4CC[C@H]3C4)c(F)c2)cc1C#N [Example 159] | 1.6 | > 2.17 | 3300 |
| CCn1nccc1-c1ccc(C[C@@H](C#N)NC(=O)[C@H]2N[C@@H]3CC[C@H]2C3)c(F)c1 [Example 110] | 28.6 | > 2.17 | 9800 |
| CC1(C)OC(=O)c2ccc(-c3ccc(C[C@@H](C#N)NC(=O)[C@H]4N[C@@H]5CC[C@H]4C5)c(F)c3)cc21 [Example 156] | 0.6 | 1.58 | 7800 |
| CN1CCC2(C=C(c3ccc(C[C@@H](C#N)NC(=O)[C@H]4N[C@@H]5CC[C@H]4C5)c(F)c3)C2)CC1 [Example 359] | 8.8 | > 2.17 | 6300 |
| CS(=O)(=O)c1ccc(-c2ccc(C[C@@H](C#N)NC(=O)[C@H]3N[C@@H]4CC[C@H]3C4)c(F)c2)cc1 [Example 16] | 2.6 | > 2.17 | 2100 |
| CCS(=O)(=O)c1ccc(-c2ccc(CC(C#N)NC(=O)[C@H]3N[C@@H]4CC[C@H]3C4)c(F)c2)cc1 (stereo partly drawn) [Example 71] | 10.8 | > 2 | 4800 |
| CCC(C)(O)Cc1cn(-c2ccc(C[C@@H](C#N)NC(=O)[C@H]3N[C@@H]4CC[C@H]3C4)c(F)c2)nn1 (stereo partly drawn) [Example 82] | 13.1 | > 2.17 | 5400 |
| CN1C(=O)C(=O)c2ccc(-c3ccc(C[C@@H](C#N)NC(=O)[C@H]4N[C@@H]5CC[C@H]4C5)c(F)c3)cc21 [Example 10] | 1.5 | > 2.17 | 2700 |
| N#C[C@H](Cc1ccc(N2CCN3CCOC[C@@H]3C2)cc1F)NC(=O)[C@H]1N[C@@H]2CC[C@H]1C2 [Example 249] | 6.3 | > 2.17 | 3600 |
| N#C[C@H](Cc1ccc(-c2cnn(C[C@H]3CCCO3)c2)cc1F)NC(=O)[C@H]1N[C@@H]2CC[C@H]1C2 [Example 260] | 3.5 | > 2.17 | 3900 |
| N#C[C@H](Cc1ccc(-c2cccc(S(=O)(=O)C3CC3)c2)cc1F)NC(=O)[C@H]1N[C@@H]2CC[C@H]1C2 [Example 153] | 3.8 | 1.83 | 4400 |
| COCCN1CCN(c2ccc(C[C@@H](C#N)NC(=O)[C@H]3N[C@@H]4CC[C@H]3C4)c(F)c2)CC1 [Example 182] | 8.8 | > 2.17 | 3500 |
| CN1CCC(N2C(=O)Cc3ccc(-c4ccc(C[C@@H](C#N)NC(=O)[C@H]5N[C@@H]6CC[C@H]5C6)c(F)c4)cc32)CC1 [Example 346] | 1 | > 2.17 | 4000 |
| COCc1cn(-c2ccc(C[C@@H](C#N)NC(=O)[C@H]3N[C@@H]4CC[C@H]3C4)c(F)c2)nn1 [Example 111] | 31.8 | > 2.17 | 4300 |
| CS(=O)(=NC#N)c1ccc(-c2ccc(C[C@@H](C#N)NC(=O)[C@H]3N[C@@H]4CC[C@H]3C4)c(F)c2)cc1 (stereo partly drawn) [Example 263] | 11.8 | > 2.17 | 2100 |
| COCCN1C(=O)Cc2ccc(-c3ccc(C[C@@H](C#N)NC(=O)[C@H]4N[C@@H]5CC[C@H]4C5)c(F)c3)cc21 [Example 158] | 1.5 | > 2.17 | 9400 |
| N#C[C@H](Cc1ccc(N2CCN(CCO)CC2)cc1F)NC(=O)[C@H]1N[C@@H]2CC[C@H]1C2 [Example 190] | 10.9 | > 2.17 | 3700 |

| Structure (SMILES) | IC50 [1] [nM] | half-life at 1 μM [2] [h] | IC50 [3] [nM] |
| --- | --- | --- | --- |
| N#C[C@H](Cc1ccc(-c2ccc3c(c2)C(=O)NC3)cc1F)NC(=O)[C@H]1N[C@@H]2CC[C@H]1C2 [Example 95] | 19.2 | > 2.17 | 3600 |
| N#CC(Cc1ccc(-c2ccc3c(c2)NC(=O)C3)cc1F)NC(=O)[C@H]1N[C@@H]2CC[C@H]1C2 (stereo partly drawn) [Example 22] | 3.3 | > 2.17 | 3200 |
| N#C[C@H](Cc1ccc(N2CCN3CCC[C@H]3C2)cc1F)NC(=O)[C@H]1N[C@@H]2CC[C@H]1C2 [Example 270] | 6.3 | > 2.17 | 6100 |
| N#C[C@H](Cc1ccc(-c2csc(C(N)=O)c2)cc1F)NC(=O)[C@H]1N[C@@H]2CC[C@H]1C2 [Example 157] | 0.9 | > 2.17 | 7400 |
| N#C[C@H](Cc1ccc(-c2cnn(CC3CCCO3)c2)cc1F)NC(=O)[C@H]1N[C@@H]2CC[C@H]1C2 (stereo partly drawn) [Example 50] | 7.4 | > 2.17 | 3600 |
| CN1CCC(c2ccc(C[C@@H](C#N)NC(=O)[C@H]3N[C@@H]4CC[C@H]3C4)c(F)c2)CC1 [Example 117] | 39.6 | > 2.17 | 2700 |
| N#C[C@H](Cc1ccc(N2CCN(CC3CCCO3)CC2)cc1F)NC(=O)[C@H]1N[C@@H]2CC[C@H]1C2 (stereo partly drawn) [Example 154] | 13.5 | > 2.17 | 4600 |
| CN1CCN(c2ccc(C[C@@H](C#N)NC(=O)[C@H]3N[C@@H]4CC[C@H]3C4)c(F)c2)CC1 [Example 6, (1S,2S,4R)—N-[(1S)-1-cyano-2-[2-fluoro-4-(4-methylpiperazin-1-yl)phenyl]ethyl]-3-azabicyclo[2.2.1]heptane-2-carboxamide] | 10.7 | > 2.17 | 2500 |
| N#C[C@H](Cc1ccc(-c2cccc(S(N)(=O)=O)c2)cc1F)NC(=O)[C@H]1N[C@H]2C[C@@H]1[C@@H]1C[C@@H]12 [Example 143] | 6.7 | > 2.17 | 5100 |
| N#CC(Cc1ccc(-c2ccc3c(c2)CCNC3=O)cc1F)NC(=O)[C@H]1N[C@@H]2CC[C@H]1C2 (stereo partly drawn) [Example 49] | 7.3 | > 2.17 | 6500 |
| N#C[C@H](Cc1ccc(C2=CCN3CCOCC3C2)cc1F)NC(=O)[C@H]1N[C@@H]2CC[C@H]1C2 (stereo partly drawn) [Example 281] | 3.3 | > 2.17 | 1900 |
| CS(=O)(=O)c1cc(-c2ccc(C[C@@H](C#N)NC(=O)[C@H]3N[C@@H]4CC[C@H]3C4)c(F)c2)ccc1C#N [Example 14] | 2 | > 2.17 | 2700 |
| CS(C)(=O)=Nc1cccc(-c2ccc(C[C@@H](C#N)NC(=O)[C@H]3N[C@@H]4CC[C@H]3C4)c(F)c2)c1 [Example 259] | 6 | > 2.17 | 3700 |
| N#C[C@H](Cc1ccc(-c2ccc3c(c2)NC(=O)C3)c(F)c1F)NC(=O)[C@H]1N[C@@H]2CC[C@H]1C2 [Example 181] | 8.6 | > 2.17 | 9700 |
| Cn1c(=O)c2cc(CC(C#N)NC(=O)[C@H]3N[C@@H]4CC[C@H]3C4)ccc2c2ccc(C#N)cc21 (stereo partly drawn) [Example 303] | 5 | > 2.17 | 22200 |
| CC(=O)c1cn(-c2ccc(C[C@@H](C#N)NC(=O)[C@H]3N[C@@H]4CC[C@H]3C4)c(F)c2)nn1 [Example 90] | 16 | > 2.17 | 3500 |
| CS(=O)(=NC#N)c1cccc(-c2ccc(C[C@@H](C#N)NC(=O)[C@H]3N[C@@H]4CC[C@H]3C4)c(F)c2)c1 (stereo partly drawn) [Example 222] | 2.2 | > 2.17 | 1700 |
| N#Cc1ccc(-c2ccc(C[C@@H](C#N)NC(=O)[C@H]3N[C@H]4C[C@@H]3[C@@H]3C[C@@H]34)c(F)c2)s1 [Example 40] | 5.1 | > 2.17 | 7800 |
| N#C[C@H](Cc1ccc(-c2ccc(C(N)=O)s2)cc1F)NC(=O)[C@H]1N[C@@H]2CC[C@H]1C2 [Example 236] | 1.6 | > 2.17 | 1700 |
| N#C[C@H](Cc1ccc(-n2cc(C3CC3)nn2)cc1F)NC(=O)[C@H]1N[C@@H]2CC[C@H]1C2 [Example 67] | 9.6 | 1.48 | 4600 |
| N#CC(Cc1ccc2c(c1)c(=O)[nH]c1c(F)c(F)ccc12)NC(=O)[C@H]1N[C@@H]2CC[C@H]1C2 (stereo partly drawn) [Example 300] | 3.8 | > 2.17 | 23100 |
| COCCOCc1cn(-c2ccc(C[C@@H](C#N)NC(=O)[C@H]3N[C@@H]4CC[C@H]3C4)c(F)c2)nn1 [Example 112] | 33.3 | > 2.17 | 5600 |
